Experiment in all cases: NCI tumour cell line growth inhibition, 48 h
Experiment [1] deals with DLD-1 colon.
For experiment [2], the system named is RXF-631 renal.
The subject of experiment [3] is HOP-18 NSCLC.
Experiment [4] relates to LXFL 529 NSCLC.
In experiment [5] the test system is KM20L2 colon.
Experiment [6] concerns DMS 114 small cell lung.
For experiment [7], the system named is M19-MEL melanoma.
In experiment [8] the test system is XF 498 CNS.
Experiment [9] relates to MDA-N.
Experiment [10] relates to P388/ADR leukemia.
Experiment [11] concerns SN12K1 renal.

Values joined by “and” are separate entries in the source; they are usually repeats but may differ in a detail not shown here. Equal values may be shown once.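 Each compound was tested at five concentrations against cells in 96-well plates for 48 hours. At the GI50, growth is halved. TGI denotes the concentration required for complete inhibition of growth.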

Take `CC([O-])=C1C(=O)c2ccccc2C1=O.CC([O-])=C1C(=O)c2ccccc2C1=O.CC[O-].CC[O-].[Ti+4]`: the GI50 in [1] was > 100 µM; in experiment [2], > 100 µM; in experiment [3], > 100 µM; in experiment [4], 87.5 µM; in experiment [5] it was > 100 µM; in [6], > 100 µM. Also, the TGI in [1], in [2], in [3], in experiment [4], in [5] and in experiment [6] was > 100 µM in each case.

As to `O=C1OC(=O)C2C3C=CC(C12)C1C2C=CC2C31` (centres undefined), the TGI in experiment [2], in experiment [3], in [4], in experiment [7], in experiment [8] and in [5] was > 100 µM each time.

On to `COC(=O)c1cc(OC)c(OC)c(OC)c1-c1cc2c(cc1C=O)OCO2`, for which the TGI in [9] was > 10 µM.

Regarding `Cc1cc(Cl)ccc1C(=O)c1ccc2ccccc2c1C(=O)O`, the TGI in [9] is > 100 µM.

The compound `CN(C)c1cccc(F)c1C(=O)NC(=O)Nc1ccc(Cl)cc1` yielded a TGI in experiment [9] of 0.762 µM.

For the compound `O=c1c2cc3c(cc2c2cccc4c2n1CCC4)OCO3`, the TGI in experiment [1], in [3], in experiment [4], in experiment [7] and in experiment [5] was > 100 µM in each case.

As for `COCCOCCOCCOc1cccc2c1C(=O)c1cccc(OCCOCCOCCOC)c1C2=O`, the TGI in experiment [1], in [2], in experiment [3], in experiment [4], in experiment [7] and in experiment [8] was > 100 µM throughout. Also, the TGI in experiment [5] and in [6] was > 100 µM each time.

Take `O=C(NCCCl)SCCO`: the TGI in [1], in [2], in [4], in experiment [7], in experiment [5] and in experiment [6] was > 100 µM throughout.

`CCC(C)C(=O)OCC(=O)c1ccc(-c2ccccc2)cc1` (centres undefined): in experiment [9], the TGI is > 100 µM.

With `NC(=O)NC1C(C(=O)O)N(Cc2ccccc2)C(=O)N1Cc1ccccc1` (centres undefined), the TGI in experiment [1], in [4], in [7], in experiment [8], in [5] and in [6] was > 100 µM throughout.

As to `COc1cccc(N2C(=O)C3C4C=C5c6ccccc6N(c6ccccc6)C5(C3C2=O)[C@H]2C(=O)N(c3cccc(OC)c3)C(=O)[C@@H]42)c1` (some centres undefined), the TGI in experiment [1], in [2], in experiment [3], in experiment [4], in experiment [7] and in [8] was > 100 µM throughout. Besides, the TGI in [5] and in experiment [6] was > 100 µM throughout.

With `COc1ccc2c(c1)-c1nn(CCCN(C)C)c3ccc([N+](=O)[O-])c(c13)N2`, the TGI in experiment [1] is 5.24 µM and 6.12 µM; in experiment [9] it was 2.53 µM and 3.61 µM; in experiment [10], 0.925 µM; in [3], 13.6 µM and 21 µM; in experiment [7], 3.39 µM and 11.8 µM; in [8], 2.34 µM and 16.2 µM. Moreover, the TGI in experiment [5] is 4.98 µM and 10.9 µM; in [6] it was 4.24 µM and 13.8 µM; in experiment [11], 0.682 µM. The GI50 in experiment [9] is 0.159 µM and 0.503 µM; in experiment [7], 0.255 µM and 0.545 µM; in experiment [8], 0.443 µM and 2.91 µM; in [5] it was 0.0855 µM and 0.49 µM; in experiment [6], 0.202 µM and 0.543 µM.

In the case of `COc1cc2ccnc3c(=C(SC)SC)c(=O)c(c1OC)c23`, the TGI in experiment [1] was determined as 29.5 µM; in experiment [2], 28.9 µM; in experiment [3] it was 26.7 µM; in [4] it was 16.5 µM; in experiment [7] it was 30.2 µM; in experiment [5] it was 32.6 µM. The same compound gave a TGI in experiment [6] of 36 µM.

For `COc1cc2oc3c(c(=O)c2c(O)c1/C=C/C(C)C)C(C=C(C)C)Oc1cc(O)ccc1-3` (centres undefined), the TGI in experiment [9] stood at 31.9 µM.

Turning to `COc1ccc(C(=O)C#Cc2c[nH]c(=O)[nH]c2=O)cc1`, the TGI in [1] is 24.6 µM; in experiment [2], 34.1 µM; in experiment [3], > 50.1 µM; in experiment [4] it was 12.2 µM; in experiment [7] it was 21.9 µM; in [5], 22.8 µM. In experiment [6], this compound returned a TGI of 46.7 µM.

In the case of `N#Cc1cccc(C=NC23CC4CC(CC(C4)C2)C3)c1`, the TGI in experiment [7], in experiment [5] and in experiment [6] was > 100 µM throughout.

On to `C=C(C(=C)P(=S)(C(C)C)C(C)C)P(=S)(C(C)C)C(C)C`, for which the TGI in experiment [1], in experiment [2], in [4], in [7], in experiment [8] and in [5] was > 100 µM throughout. The TGI in experiment [6] is > 100 µM.

As to `COc1cc(C(C)O)c[n+](CCC2CNc3ccccc32)c1` (centres undefined), the TGI in experiment [1], in experiment [4], in experiment [7], in [8], in experiment [5] and in experiment [6] was > 100 µM in each case.

Consider `c1ccc(OCc2nnc3n2N=C(c2ccccc2)CS3)cc1`, for which the TGI in experiment [1], in experiment [4], in experiment [7], in experiment [8] and in experiment [6] was > 100 µM each time.

As for `COC1CC(N)C(O)C(C)O1` (centres undefined), in experiment [9], the TGI is > 100 µM.

Turning to `COc1ccc(NC(=O)CC(=O)n2nc(C)c(N=Nc3ccccc3C(=O)O)c2C)cc1`, the TGI in experiment [1], in experiment [4], in experiment [7], in experiment [8], in experiment [5] and in [6] was > 100 µM throughout.

Turning to `CC(=O)NC(C=O)C(O[C@H](C)C(=O)NC(C)C(=O)NC(CCC(N)=O)C(=O)OCc1ccccc1)C(O)C(O)COC(=O)CCNc1c2ccccc2nc2cccc([N+](=O)[O-])c12` (some centres undefined), the TGI was 16.5 µM in experiment [1]; > 100 µM in experiment [3]; 3.58 µM in experiment [4]; 4.02 µM in experiment [7]; 3.71 µM in [8]; 5.58 µM in experiment [5]. The same compound showed a TGI in [6] of 10.7 µM.

As for `CCCCCCCCCCCc1c(O)c(=O)c2c(oc3c(=O)c(CCCCCCCCCCC)c(O)c(=O)c3n2-c2ccc(N(C)C)cc2)c1=O`, the TGI stood at 50.5 µM in [1]; 42.9 µM in experiment [3]; 47.2 µM in experiment [4]; 37.9 µM in experiment [8]; 38.5 µM in experiment [5]; 57.7 µM in [6].

As for `O=c1[nH]cnc2c(COCCO)c[nH]c12`, the TGI in experiment [1], in [2], in [3], in experiment [4], in [7] and in experiment [8] was > 100 µM throughout. The TGI in [5] and in experiment [6] was > 100 µM in each case.

For `Cc1c2c(c(C)c3c1[nH]c1ccccc13)CN(C)CC2`, the TGI was > 100 µM in experiment [1]; 89.7 µM in experiment [2]; > 100 µM in experiment [3]; 28.2 µM in experiment [4]; 30.7 µM in experiment [7]; 41.6 µM in [5]. In [6], the TGI was 28.5 µM.

As to `CC(=O)c1ccc(NC(=O)C(=O)C(C#N)CC(C)(C)C=O)cc1` (centres undefined), the TGI in experiment [4], in [7], in experiment [8] and in experiment [5] was > 100 µM throughout.

Take `CC(=O)OC1=CC2(OC(C)=O)CC(C)(C)C1C1C(=O)C=CC(=O)C12` (centres undefined): the TGI in [1], in experiment [2], in [9], in experiment [4], in experiment [7] and in [8] was > 100 µM in each case. The TGI in experiment [5] and in experiment [6] was > 100 µM throughout.

As for `CCC1(CN(C)C)CC/C(=C\c2ccc(OC)c(OC)c2)C1=O` (centres undefined), the TGI in [1], in [2], in experiment [3], in experiment [4], in experiment [7] and in experiment [8] was > 100 µM in each case. For the same compound, the TGI in experiment [5] and in [6] was > 100 µM in each case.

For `CC1=Nc2c([nH]c(=S)[nH]c2=O)NC(c2c(Cl)cccc2Cl)C1` (centres undefined), the TGI in experiment [1] is 5.85 µM; in experiment [2], 22.5 µM; in experiment [9], 1.99 µM; in experiment [3] it was 30.2 µM; in experiment [4] it was 10.2 µM; in experiment [7], 3.17 µM. Further, the TGI was determined as 10.9 µM in experiment [8], 13.6 µM in experiment [5] and 13.8 µM in experiment [6].

Take `NC(=O)CC(N=Cc1nc(-c2ccccc2)oc1O)C(=O)O` (centres undefined): the TGI in [1], in [2], in experiment [3], in experiment [4], in experiment [7] and in experiment [5] was > 100 µM each time. Moreover, the TGI in experiment [6] is > 100 µM.

As to `O=[N+]([O-])c1cc2no[n+]([O-])c2cc1N1CCCCC1`, the TGI in [9] came to 7.06 µM.

Turning to `Cc1ccc(NC(=O)CCc2n[nH]c(=S)o2)cc1`, the TGI in [1], in experiment [2], in experiment [3], in experiment [4], in experiment [7] and in experiment [8] was > 100 µM each time. The TGI in experiment [5] and in experiment [6] was > 100 µM in each case.

As to `COc1cccc(SSc2cccc(OC)c2C(=O)O)c1C(=O)O`, the TGI in experiment [1], in experiment [2], in [3], in experiment [4], in [7] and in [8] was > 100 µM throughout. Further, the TGI in experiment [5] and in experiment [6] was > 100 µM throughout.

In experiment [9], `CC(=O)Nc1n[n+]([O-])c2cc(C)ccc2[n+]1[O-]` registered a TGI of 14.9 µM.

Consider `N#CC1=C(O)NC(O)=C(C#N)C1c1ccc(C2C(C#N)=C(O)NC(O)=C2C#N)cc1`, for which the TGI in experiment [1], in experiment [2], in experiment [3], in experiment [4], in experiment [7] and in experiment [8] was > 100 µM each time. Moreover, the TGI in experiment [5] and in experiment [6] was > 100 µM in each case.

With `CCN1C(=NCCO)NS(=O)(=O)c2ccccc21`, the TGI in experiment [9] was > 100 µM.

`COC(=O)Cc1cc(=O)[nH]c2c1C(=O)CCC2`: the TGI in experiment [1], in experiment [3], in experiment [4] and in experiment [8] was > 100 µM throughout.

As for `Cc1ccc(S(=O)(=O)N/N=C/C(C)C)cc1`, the TGI in experiment [1], in experiment [2], in experiment [3], in experiment [4], in experiment [7] and in [5] was > 100 µM throughout. Besides, in experiment [6], the TGI was > 100 µM.

Take `CCOC(=O)Nc1cc2ccccc2c(N=Nc2ccccc2)c1O`: the TGI in experiment [9] is > 100 µM.

Regarding `CC(C)(C)N/N=C(\C(=O)NC1=C(Cl)C(=O)c2ccccc2C1=O)C1C=CCS1(=O)=O` (centres undefined), in experiment [9], the TGI is 6.33 µM.

In experiment [9], `Cc1ccc(C2NC(=O)c3ccccc3N2)c(C)c1` (centres undefined) had a TGI of 0.701 µM.

For `O=C1CCCCC12CCC/C2=N\O` (centres undefined), the TGI in [1], in [2], in experiment [3], in experiment [4], in experiment [7] and in [5] was > 100 µM each time. In addition, the TGI in experiment [6] is > 100 µM.

For the origin of these results see PubChem BioAssay (NCI).
